Source: US20210128730A1, “METHODS FOR TREATING TUMORS” (NH THERAGUIX, priority 2017, published 2021)
Residues, ends and D or L forms follow the SMILES beside them. *: point of attachment. Cbz = O=C(OCc1ccccc1)*; CH2F = FC*

How the values were obtained:
Format in all cases: cell-based, human
[1] = test system: HCT116 cells; test: Cellular cannibalism (cell engulfment) in CMTMR/CMFDA co-culture, confocal microscopy
Method: (§1) HCT116 cells were seeded in 6-well plates and incubated at 37° C. during 1 hour with indicated concentrations of GdBN. Then, cells were irradiated with X-ray irradiator (1 Gy/min, 200 keV, 15 mA, 2 mm copper thickness, X-RAD 320, Precision X-Ray) or with gamma-ray irradiator (IBL-637, Cs^137, 1 Gy/min, gamma CIS-BioInternational, IBA, Saclay, France). Cells were harvested at indicated time points after irradiation for subsequent experiments. Cellular cannibalism was determined as previously described^13. […] Cells are then co-cultured for the indicated time, in presence of the pharmacological inhibitor of ROCK, Y27632 (30 μM, TOCRIS) or the pan-caspase inhibitor, zVAD-fmk (100 μM, Calbiochem). […] Cells were counterstained with Hoechst 33342 (Invitrogen) and analyzed by fluorescent confocal microscopy on a Zeiss LSM510 or by fluorescent microscopy on a LEICA DMi8 using a 63× objective. […] Cytofluorometric determinations were carried out on Guava EasyCyte (Millipore EMD) and data were analyzed by means with Incyte software (Millipore). Cell cycle distributions were assessed with 10 μg/ml of Hoechst 33342 (Invitrogen), as previously described^14. Cell fluorescence was quantified using LSR II™ flow cytometer (Becton-Dickinson). Fluorescence histograms were analyzed with Kaluza software version 1.5. […]

[2] = test system: HCT116 cells; test: Engulfed (target) cell degradation: chromatin condensation and nuclear fragmentation by fluorescence microscopy; conditions: 100 μM Z-VAD-fmk; XR or GdBN+XR
Method: Cellular cannibalism was determined as previously described^13. Briefly, treated cells were stained with 10 μM of 5-(and-6)-(((4-Chloromethyl)Benzoyl)Amino)Tetramethylrhodamine (Cell Tracker Orange CMTMR, Invitrogen) and untreated cells were stained with 10 μM of 5-chloromethylfluorescein diacetate (Cell tracker Green CMFDA, Invitrogen). Cells are then co-cultured for the indicated time, in presence of the pharmacological inhibitor of ROCK, Y27632 (30 μM, TOCRIS) or the pan-caspase inhibitor, zVAD-fmk (100 μM, Calbiochem). […] Cells were counterstained with Hoechst 33342 (Invitrogen) and analyzed by fluorescent confocal microscopy on a Zeiss LSM510 or by fluorescent microscopy on a LEICA DMi8 using a 63× objective. […] Cytofluorometric determinations were carried out on Guava EasyCyte (Millipore EMD) and data were analyzed by means with Incyte software (Millipore). Cell cycle distributions were assessed with 10 μg/ml of Hoechst 33342 (Invitrogen), as previously described^14. Cell fluorescence was quantified using LSR II™ flow cytometer (Becton-Dickinson). Fluorescence histograms were analyzed with Kaluza software version 1.5. […]

[3] = test system: p21; test: p21 expression by fluorescence microscopy and immunoblot; conditions: HCT116 treated with XR alone or GdBN+XR
Method: as §1

[4] = test system: ROCK1; test: ROCK1 activation by immunoblot of MLC2 serine 19 phosphorylation (MLC2S19*); conditions: 30 μM Y27632, 24 hours; XR- or GdBN+XR-treated HCT116
Method: Total cell lysates were prepared in lysis buffer (0,1% NP40 ; 200 mM HEPES ; 100 mM KCl; 1 mM EDTA; 1% Glycerol final concentration) supplemented with proteases and phosphatases inhibitors cocktail (EDTA-free inhibitors, Roche-diagnostics, Meylan, France). Protein extracts were quantified using the Bradford assay (Bio-Rad Laboratories, Hercules, Calif., USA). Protein extracts (20-40 μg) were run onto 4-12% NuPAGE Bis-tris gel (Invitrogen) and transferred onto nitrocellulose membrane at 4° C.

Which “effect on cellular engulfment” value ([1]; 100 μM Z-VAD-fmk, after XR or GdBN+XR, 24 h culture) does the source give for `COC(=O)C[C@H](NC(=O)[C@H](C)NC(=O)[C@@H](NC(=O)OCc1ccccc1)C(C)C)C(=O)CF` [Z-VAD-fmk, benzyloxycarboxyl-Val-Ala-Asp (OMe) fluoromethylketone] (Cbz-Val-Ala-Asp(OMe)-CH2F) here?
Its value is “not inhibited”.

What about the “effect on target cell degradation” value [2] of the same compound?
Its value is “failed to repress target cell degradation”.

How did the “effect on cellular senescence (p21 expression, immunoblot)” value ([3]; 100 μM NAC) turn out when `CC(=O)N[C@@H](CS)C(=O)O` [NAC, N-acetylcysteine] was run?
The value was “reduced the cellular senescence”.

What does the source list for `C[C@@H](N)[C@H]1CC[C@H](C(=O)Nc2ccncc2)CC1` [Y27632]?
effect on cellular cannibalism ([1]; 30 μM Y27632, after 6 Gy alone and after 6 Gy with 1.2 mM GdBN, 24 hours co-culture): inhibited the cellular cannibalism; inhibition of ROCK1 (MLC2S19* immunoblot) [4]: inhibition of ROCK1

How did the “effect on cellular senescence (p21 expression, immunoblot)” value ([3]; 10 μM MnTBAP) turn out when `O=C(O)c1ccc(-c2c3nc(c(-c4ccc(C(=O)O)cc4)c4ccc([n-]4)c(-c4ccc(C(=O)O)cc4)c4nc(c(-c5ccc(C(=O)O)cc5)c5ccc2[n-]5)C=C4)C=C3)cc1.[Mn+3]` [MnTBAP, Manganese (III)-tetrakis(4-benzoic acid) porphyrin] was run?
Its value is “reduced the cellular senescence”.
